Calls of active or inactive are those of the source. The rule behind the calls is not given here.
Assays:
Candida albicans = test: Antifungal activity against Candida albicans ATCC 10231 at 100 ug per disc after 3 to 5 days by paper disc agar diffusion assay; type: functional
[1] = biological target: T1, Cell division protein FtsZ (Staphylococcus aureus) (UniProt P0A031); test: Inhibition of FtsZ in Staphylococcus aureus ATCC 6538P assessed as growth inhibition at 100 ug per disc after 18 to 24 hrs by paper disc agar diffusion assay
T1 sequence (whole entry): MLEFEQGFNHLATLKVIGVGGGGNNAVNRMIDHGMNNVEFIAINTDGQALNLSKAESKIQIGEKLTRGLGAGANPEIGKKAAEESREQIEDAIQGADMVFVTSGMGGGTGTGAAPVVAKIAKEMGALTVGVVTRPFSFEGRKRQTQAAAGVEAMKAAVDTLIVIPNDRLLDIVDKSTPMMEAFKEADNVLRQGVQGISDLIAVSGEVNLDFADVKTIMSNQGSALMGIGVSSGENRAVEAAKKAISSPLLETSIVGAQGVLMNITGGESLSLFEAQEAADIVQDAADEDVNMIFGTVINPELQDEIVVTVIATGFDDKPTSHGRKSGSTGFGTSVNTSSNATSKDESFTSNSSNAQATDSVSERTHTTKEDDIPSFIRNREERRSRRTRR

Pseudomonas aeruginosa = test: Inhibition of FtsZ in Pseudomonas aeruginosa ATCC 9027 assessed as growth inhibition at 100 ug per disc after 18 to 24 hrs by paper disc agar diffusion assay
Aspergillus niger = test: Antifungal activity against Aspergillus niger ATCC 16404 at 100 ug per disc after 3 to 5 days by paper disc agar diffusion assay; type: functional
[2] = tested on: Bacillus subtilis subsp. spizizenii ATCC 6633 = JCM 2499; test: Inhibition of FtsZ in Bacillus subtilis ATCC 6633 assessed as growth inhibition at 100 ug per disc after 18 to 24 hrs by paper disc agar diffusion assay
[3] = tested on: Mycolicibacterium smegmatis; test: Inhibition of FtsZ in Mycobacterium smegmatis ATCC 607 assessed as growth inhibition at 100 ug per disc after 18 to 24 hrs by paper disc agar diffusion assay
Klebsiella aerogenes = test: Inhibition of FtsZ in Klebsiella aerogenes ATCC 9621 assessed as growth inhibition at 100 ug per disc after 18 to 24 hrs by paper disc agar diffusion assay
[4] = tested on: Escherichia coli ATCC 25922; test: Inhibition of FtsZ in Escherichia coli ATCC 25922 assessed as growth inhibition at 100 ug per disc after 18 to 24 hrs by paper disc agar diffusion assay
[5] = biological target: T1, Cell division protein FtsZ (Staphylococcus aureus); test: Inhibition of FtsZ in Staphylococcus aureus ATCC 6538P assessed as ratio of diameter of zone inhibition of test compound to diameter of zone inhibition of cephaloridine at 100 ug per disc after 18 to 24 hrs by paper disc agar diffusion assay
[6] = tested on: Bacillus subtilis subsp. spizizenii ATCC 6633 = JCM 2499; test: Inhibition of FtsZ in Bacillus subtilis ATCC 6633 assessed as ratio of diameter of zone inhibition of test compound to diameter of zone inhibition of tetracycline at 100 ug per disc after 18 to 24 hrs by paper disc agar diffusion assay
[7] = tested on: Mycolicibacterium smegmatis; test: Inhibition of FtsZ in Mycobacterium smegmatis ATCC 607 assessed as ratio of diameter of zone inhibition of test compound to diameter of zone inhibition of streptomycin at 100 ug per disc after 18 to 24 hrs by paper disc agar diffusion assay
Klebsiella pneumoniae = test: Inhibition of FtsZ in Klebsiella pneumoniae ATCC 9621 assessed as growth inhibition at 100 ug per disc after 18 to 24 hrs by paper disc agar diffusion assay

Compound	Activity (Candida albicans)	inhibition [1]	inhibition (Pseudomonas aeruginosa)	Activity (Aspergillus niger)	inhibition [2]	inhibition [3]	inhibition (Klebsiella aerogenes)	inhibition [4]	Ratio [5]	Ratio [6]	Ratio [7]	inhibition (Klebsiella pneumoniae)
NC(=O)c1c(F)ccc(OCCCOc2ccc3ccccc3c2)c1F	inactive	inactive	inactive	inactive	inactive	inactive	inactive	inactive				
NC(=O)c1c(F)ccc(OCC(=O)Nc2ccccc2)c1F	inactive		inactive	inactive		inactive	inactive	inactive	0.1	0.1		
NC(=O)c1c(F)ccc(OCC(=O)OCCOc2ccccc2)c1F	inactive		inactive	inactive			inactive	inactive	0.18	0.18	0.36	
NS(=O)(=O)c1c(F)ccc(OCc2nc3cc(Cl)ccc3s2)c1F	inactive	inactive	inactive	inactive	inactive	inactive	inactive	inactive				
NC(=O)c1c(F)ccc(OCCCOc2ccc(Cl)c3cccnc23)c1F	inactive		inactive	inactive		inactive	inactive	inactive	0.25	0.1		
NC(=O)c1c(F)ccc(OCCCOc2c(Cl)cc(Cl)c3cccnc23)c1F	inactive		inactive	inactive			inactive	inactive	0.18	0.1	0.2	
NS(=O)(=O)c1c(F)ccc(OCc2nc3cc(Cl)cnc3s2)c1F	inactive	inactive	inactive	inactive	inactive	inactive	inactive	inactive				
NC(=O)c1c(F)ccc(OCC(=O)OCCOc2ccc(Br)cc2)c1F	inactive		inactive	inactive		inactive	inactive	inactive	0.22	0.15		
COc1ccc(OCCOC(=O)COc2ccc(F)c(C(N)=O)c2F)cc1	inactive	inactive	inactive	inactive			inactive	inactive		0.51	0.37	
NC(=O)c1c(F)ccc(OCCCOc2cccc3cccnc23)c1F	inactive		inactive	inactive	inactive	inactive	inactive	inactive	0.07			
Cc1ccc(OC(=O)COc2ccc(F)c(C(N)=O)c2F)cc1	inactive		inactive	inactive			inactive	inactive	0.25	0.3	0.07	
NC(=O)c1c(F)ccc(OCc2nc3cc(Cl)cnc3s2)c1F					inactive	inactive			1.2			
COc1ccc(OC(=O)COc2ccc(F)c(C(N)=O)c2F)cc1	inactive	inactive	inactive	inactive			inactive	inactive		0.15	0.19	
NC(=O)c1c(F)ccc(OCC(=O)OCc2ccccc2)c1F	inactive	inactive	inactive	inactive		inactive	inactive	inactive		0.18		
N#Cc1ccc(OCCOC(=O)COc2ccc(F)c(C(N)=O)c2F)cc1	inactive	inactive	inactive	inactive		inactive	inactive	inactive		0.11		
NC(=O)c1c(F)ccc(OCCC(=O)Oc2ccccc2)c1F	inactive		inactive	inactive			inactive	inactive	0.41	0.3		
NC(=O)c1c(F)ccc(OCC(=O)Oc2ccccc2)c1F	inactive		inactive	inactive			inactive	inactive	0.07	0.19	0.5	
NC(=O)c1c(F)ccc(OCCCOc2cccc3ccccc23)c1F	inactive	inactive	inactive	inactive	inactive	inactive	inactive	inactive				
Cc1ccc(OCCOC(=O)COc2ccc(F)c(C(N)=O)c2F)cc1	inactive		inactive	inactive		inactive	inactive	inactive	0.1	0.25		
NC(=O)c1c(F)ccc(OCC(=O)OCCOc2ccc(F)cc2)c1F	inactive		inactive	inactive			inactive	inactive	0.44	0.18	0.62	
Cc1ccc2cccc(OCCCOc3ccc(F)c(C(N)=O)c3F)c2n1	inactive	inactive	inactive	inactive	inactive	inactive	inactive	inactive				
NC(=O)c1c(F)ccc(OCCCOC(=O)c2ccccc2)c1F	inactive	inactive	inactive	inactive	inactive	inactive		inactive				inactive
NC(=O)c1c(F)ccc(OCCOC(=O)c2ccccc2)c1F	inactive	inactive	inactive	inactive	inactive	inactive		inactive				inactive

Reference: ChEMBL document CHEMBL4007481, “Synthesis and antibacterial activity of 3-benzylamide derivatives as FtsZ inhibitors” (Bioorg Med Chem Lett, 2017)
